Test results published in patent US8791061B2, “Peptides for treating and preventing immune-related disorders, including treating and preventing infection by modulating innate immunity” (Soligenix, Inc., priority 2005, dated 2014).

Tests used:
DPPIV [1] = molecular target: T1, DPPIV (Mus musculus, UniProt P28843); assay: Comparative DPPIV dose response curves in whole ICR mouse blood; format: biochemical; conditions: 2 h at 37° C., different concentrations
T1 construct: The plasma was transferred to a 96-well assay plate for the DPPIV assay; from tissue; host or cells: pooled heparinized whole blood of ICR mice; plasma isolated after incubation
Experimental: Dose response of SEQ. ID. NO. 5 of the present invention and SEQ. ID NO. 7 in PCT/CA02/01830, filed Dec. 2, 2002 (KSRIVPAIPVSLL). Peptides were incubated at different concentrations with whole ICR mouse blood for 2 h at 37° C. Blood incubated with acetate buffered saline (20 mM) was used as a control. Following incubation, plasma was isolated by centrifugation for 10 minutes at 4000 rcf. The substrate Gly-Pro-p-nitroanilide (0.8 mM) was added to the plasma and the enzymatic rate of DPPIV was determined by monitoring the increase in UV absorbance of the product p-nitroaniline. […] ID. NO.

[2] = tested on: LPS stimulated cytokine response; assay: Anti-inflammatory activity: ex vivo LPS stimulated cytokine response of PBMCs after in vivo peptide treatment; design: species or system mouse; conditions: 100 mg/kg intravenously, blood collected after 4 hours, PBMCs stimulated with LPS
Experimental: The effect of peptide treatment on the ex vivo LPS stimulated cytokine response was measured. In these studies, SEQ ID NO 5 was administered intravenously at 100 mg/kg and after 4 hours, blood was collected from each mouse. PBMCs were isolated and stimulated with LPS and the resulting cytokine levels were determined.

DPPIV [3] = molecular target: T2, DPPIV (Homo sapiens, UniProt P27487); assay: Plasma DPPIV activity assay with human blood; format: biochemical; conditions: 2 hours at 37° C., dose response
T2 construct: from tissue; host or cells: heparinized whole blood of human volunteer donors; plasma isolated after incubation
Experimental: Human blood was obtained by qualified medical personnel from volunteer donors and collected in heparinized blood collection tubes. Blood was aliquoted into 300 μL aliquots. The peptides were dissolved in acetate buffered saline, pH 5.5. 30 μL of various concentrations were added to 300 μL of blood and mixed by resuspension (final concentration in blood as indicated in FIG. 6). For the control, 30 μL of blank acetate buffered saline was added to 300 μL of blood. Each concentration was prepared in triplicate, whereas the control was prepared in six replicates. The samples were incubated at 37° C. in closed microtubes for two hours. After incubation the plasma was isolated from the samples by centrifugation at 4000 rcf. The plasma was transferred to a 96-well assay plate for the DPPIV assay. The assay was started by adding 5 μL of the DPPIV substrate gly-pro-p-nitroanilide (16 mM in de-ionized water) to 95 μL of plasma (concentration in plasma 0.8 mM) and the increase in UV absorbance (405 nm) was monitored over a 20 min time period. The rate of the production of p-nitroaniline by enzymatic cleavage of gly-pro-p-nitroanilide was taken as the activity of DPPIV (Durinx C et al., (2001) “Reference values for plasma dipeptidyl-peptidase IV activity and their association with other laboratory parameters”. Clin Chem Lab Med. 39(2):155-9.)

[4] = tested on: methicillin-resistant Staphlococcus aureus (MRSA strain ATCC 33591, UC6685); assay: Enhancing the efficacy of antibiotic treatment, MRSA infection of CD-1 mice; format: in vivo; conditions: peptide 60 mg/kg IP 24 hours prior to infection, in combination with vancomycin s.c. 1 and 5 hours post-infection; relative to vehicle or antibiotic alone; 5 or 8 days
Experimental: Twenty-four hours prior to infection, peptide was administered at 60 mg/kg via IP injection to CD-1 mice (N=10 animals/group; FIG. 8A: male mice, FIG. 8B: female mice). Mice were then infected with methicillin-resistant Staphlococcus aureus (MRSA strain ATCC 33591 in FIG. 8A and UC6685 in FIG. 8B) via IP injection (1.5*10^7 in FIG. 8A and ˜4*10^5 in FIG. 8B). Vancomycin at the given dosage was administered twice subcutaneously 1 and 5 hours post-infection. Survival was monitored over 5 (FIG. 8A) or 8 (FIG. 8B) days.

T1 sequence (P28843 37-760 limits assumed): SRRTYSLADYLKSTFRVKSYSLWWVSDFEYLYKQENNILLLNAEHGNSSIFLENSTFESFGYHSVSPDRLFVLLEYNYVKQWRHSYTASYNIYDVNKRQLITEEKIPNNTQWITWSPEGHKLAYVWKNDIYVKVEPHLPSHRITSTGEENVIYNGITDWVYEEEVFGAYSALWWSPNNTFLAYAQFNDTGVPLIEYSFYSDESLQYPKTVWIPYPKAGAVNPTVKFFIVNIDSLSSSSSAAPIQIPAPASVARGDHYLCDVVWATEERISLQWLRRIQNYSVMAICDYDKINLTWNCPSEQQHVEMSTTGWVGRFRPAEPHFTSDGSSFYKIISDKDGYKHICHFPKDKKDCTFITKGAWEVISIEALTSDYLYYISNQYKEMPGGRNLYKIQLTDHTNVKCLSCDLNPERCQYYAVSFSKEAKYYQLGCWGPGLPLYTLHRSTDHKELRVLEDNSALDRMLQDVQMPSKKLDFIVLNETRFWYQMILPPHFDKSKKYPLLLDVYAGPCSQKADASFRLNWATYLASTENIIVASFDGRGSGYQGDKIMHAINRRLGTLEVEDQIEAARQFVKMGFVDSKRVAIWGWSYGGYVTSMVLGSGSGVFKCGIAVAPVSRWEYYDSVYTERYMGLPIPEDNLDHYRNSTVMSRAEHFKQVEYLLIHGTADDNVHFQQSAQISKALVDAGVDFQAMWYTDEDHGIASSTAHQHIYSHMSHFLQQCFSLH
T2 sequence (P27487 39-766 limits assumed): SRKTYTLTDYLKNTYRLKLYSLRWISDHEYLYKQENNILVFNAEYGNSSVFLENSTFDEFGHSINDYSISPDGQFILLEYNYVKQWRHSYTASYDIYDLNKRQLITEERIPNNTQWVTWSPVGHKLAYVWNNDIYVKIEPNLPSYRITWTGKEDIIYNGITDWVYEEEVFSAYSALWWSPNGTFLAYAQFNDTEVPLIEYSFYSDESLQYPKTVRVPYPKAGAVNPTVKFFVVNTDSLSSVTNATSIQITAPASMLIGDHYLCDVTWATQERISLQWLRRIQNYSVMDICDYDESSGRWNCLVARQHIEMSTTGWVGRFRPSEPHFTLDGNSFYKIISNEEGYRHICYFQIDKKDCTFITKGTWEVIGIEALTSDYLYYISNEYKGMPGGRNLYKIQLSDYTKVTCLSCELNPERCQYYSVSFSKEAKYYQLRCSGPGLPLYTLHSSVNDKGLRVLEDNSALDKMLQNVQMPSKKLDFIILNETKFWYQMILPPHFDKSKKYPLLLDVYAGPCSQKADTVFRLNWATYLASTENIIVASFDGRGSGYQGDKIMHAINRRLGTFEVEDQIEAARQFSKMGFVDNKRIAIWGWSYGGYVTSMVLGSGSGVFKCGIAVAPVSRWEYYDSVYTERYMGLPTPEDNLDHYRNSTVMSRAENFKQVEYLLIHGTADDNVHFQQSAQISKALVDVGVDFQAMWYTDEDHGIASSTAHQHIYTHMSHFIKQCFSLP

Substance	DPPIV dose response (DPPIV [1])	inflammatory response to LPS stimulation (cytokine levels) [2]	plasma DPPIV activity in human blood (DPPIV [3])	survival [4]
KSRIVPAIPVSLL [ID NO; 7 in PCT/CA02/01830, filed Dec; 2, 2002, reference compound]	A similar dose response was absent	–	–	–
RIVPA [SEQ ID NO 5]	larger decrease in DPPIV activity with increasing peptide concentration	decreased inflammatory response to LPS stimulation	comparable to that determined in mouse blood	enhanced survival
KSRIVP (IMMUNOLOGICAL PEPTIDE) [SEQ ID NO 1]	–	–	–	enhanced survival
